In brackets after ≈: the same amount, converted by molar mass.
Columns and labels:
BT-20 = test: Compound was tested for its cytotoxicity against BT-20 breast carcinoma cells; type: functional, cell-based; conditions: Homo sapiens
HeLa [1] = test: Compound was tested for its cytotoxicity against HeLa epithelioid cervix carcinoma cells; type: functional, cell-based; conditions: Homo sapiens
[2] = biological target: T1, Polyunsaturated fatty acid 5-lipoxygenase (Homo sapiens) (UniProt P09917); test: Compound was tested for its inhibitory activity against 5-lipoxygenase
T1 sequence (whole entry): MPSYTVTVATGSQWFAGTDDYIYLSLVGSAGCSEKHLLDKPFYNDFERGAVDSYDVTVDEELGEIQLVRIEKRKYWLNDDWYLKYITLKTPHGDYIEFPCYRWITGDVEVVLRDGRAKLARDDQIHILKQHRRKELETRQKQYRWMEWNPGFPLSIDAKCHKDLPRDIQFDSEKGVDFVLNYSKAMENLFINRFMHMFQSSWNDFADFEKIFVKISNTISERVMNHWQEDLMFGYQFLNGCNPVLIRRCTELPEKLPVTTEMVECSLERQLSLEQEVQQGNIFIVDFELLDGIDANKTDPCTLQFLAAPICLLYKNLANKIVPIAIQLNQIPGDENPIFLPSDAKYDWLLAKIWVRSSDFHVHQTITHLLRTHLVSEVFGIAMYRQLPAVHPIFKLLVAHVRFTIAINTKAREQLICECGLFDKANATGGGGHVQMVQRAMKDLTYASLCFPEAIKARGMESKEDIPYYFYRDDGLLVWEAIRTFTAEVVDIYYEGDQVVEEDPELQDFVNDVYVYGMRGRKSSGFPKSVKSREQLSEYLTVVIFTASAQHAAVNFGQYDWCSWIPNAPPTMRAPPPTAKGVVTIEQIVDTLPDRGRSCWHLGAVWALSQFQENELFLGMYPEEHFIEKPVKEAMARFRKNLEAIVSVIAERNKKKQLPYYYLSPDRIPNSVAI

HeLa [3] = test: Compound was tested for its cytotoxicity against HeLa epithelioid cervix carcinoma cells.; type: functional, cell-based; conditions: Homo sapiens

Work on `CCCC/C=C\CCCCCCCCCC1=C(O)C(O)=C(C)C(=O)C1=O` yielded an IC50 (BT-20) of 1.58 µg/mL (≈ 4.36 µM) and an IC50 (HeLa [1]) of 2.05 µg/mL (≈ 5.66 µM).
Work on `CCCC/C=C\CCCCCCCCCC1=C(O)C(OC)=CC(=O)C1=O` yielded an IC90 [2] of 3000 nM, an IC50 (BT-20) of 1.8 µg/mL (≈ 4.97 µM) and an IC50 (HeLa [3]) of 1.25 µg/mL (≈ 3.45 µM).

Source: ChEMBL document CHEMBL1127283, “Structure of maesaquinone” (Bioorg Med Chem Lett, 1994)
